pIC50: −log10 of the molar value. Read-outs that look alike come from different tables or passages of the source.
Legend:
ICR male or female mice = assay: Acute toxicity evaluation in mice, intravenous; type: in vivo, mouse; details: intravenous doses of 5 and 10 mg/kg, deaths recorded at 3, 24, 48 and 72 hours
Method: Compound 20 was formulated in 5% dextrose in water (w/v)/PEG 400 (4:1 v/v) to a maximum concentration of 8 mg/mL. The solution was passed through a 0.8/0.2 micron filter before administration.
ICR male or female mice weighing 20–22 g were maintained in a hygienic environment under controlled temperature (22–24° C.) and humidity (60–80%) with 12-hour light/dark cycles for at least one week. Free access to standard lab chow for mice and tap water was granted.
Three mice/dose (5 and 10 mg/kg) were intravenously administered test compound. Animal deaths were recorded at 3, 24, 48 and 72 hours after treatment.

[1] = biological target: T1, human serotonin 5-HT6 receptor (Homo sapiens, UniProt P50406); assay: Radioligand binding assay, human 5-HT6 receptors ([3H]LSD)
T1 construct: expressed in transfected cells; host or cells: HeLa/E6-7
Method: (§1) The human 5-HT2a and 5-HT2b screens were conducted according to Bonhaus, D. W. et al. Br. J. Pharmacol. 1995, 115, 622. The human 5-HT2c screen was conducted according to Wolf, W. A. et al. J. Neurochem. 1997, 69, 1449. The human 5-HT6 screen was conducted according to Monsma, F. J. et al. Mol. Pharmacol. 1993, 43, 320.
This assay measures binding of [^3H]LSD (lysergic acid diethylamide) to human serotonin 5-HT6 receptors. HeLa/E6–7 cells stably transfected with a plasmid encoding the human serotonin 5-HT6 receptor were used to prepare membranes in modified Tris-HCl pH 7.4 buffer using standard techniques. A 30 μg aliquot of membrane was incubated with 1.5 nM [^3H]LSD for 120 minutes at 37° C. Non-specific binding was estimated in the presence of 5 μM 5-HT. Membranes were filtered and washed 3 times and the filters were counted to determine [^3H]LSD specifically bound. See Monsma, Jr., F. J. et al. “Cloning and expression of a novel serotonin receptor with high affinity for tricyclic psychotropic drugs” Mol. Pharmacol. 43: 320–327, 1993.
(§2) The human 5-HT2a and 5-HT2b screens were conducted according to Bonhaus, D. W. et al. Br. J. Pharmacol. 1995, 115, 622. The human […], W. A. et al. J. Neurochem. 1997, 69, 1449. The human 5-HT6 screen was conducted according to Monsama, F. J. et al. Mol. Pharmacol. 1993, 43, 320. The assay to human D3 receptors was conducted according to Sokoloff, P. et al. Nature 1990, 347;146. The human dopamine transporter assay was conducted according to Gu, H. et. al. J. Biol. Chem. 1994, 269 (10);7124; and Giros, B. et al. Trends. Pharmacol. Sci. 1993, 14: 43. The human muscarinic M1–M4 screens were conducted according to Buckley N. J. et al. Mol. Pharmacol. 1989, 35:469.

[2] = biological target: T2, human serotonin 5-HT2B receptor (Homo sapiens, UniProt P41595); assay: Radioligand binding assay, human 5-HT2B receptors ([3H]LSD); details: for IC50: human 5-HT2b, Example 16 table, read-out: IC50 (nM) 5-HT2b
T2 construct: expressed in transfected cells; host or cells: CHO-K1
Method: This assay measures binding of [^3H]LSD to human serotonin 5-HT2B receptors. CHO-K1 cells stably transfected with a plasmid encoding the human serotonin 5-HT2B receptor were used to prepare membranes in modified Tris-HCl pH 7.4 buffer using standard techniques. […] Non-specific binding was estimated in the presence of 10 μM serotonin. Membranes were filtered and washed 3 times and the filters were counted to determine [^3H]LSD specifically bound. See Bonhaus, D. W. et al. “The pharmacology and distribution of human 5-hydroxytryptamine2B (5-HT2B) receptor gene products: comparison with 5-HT2A and 5-HT2C receptors” Brit.
The human 5-HT2b screen was conducted according to Wolf, W. A. et al. J. Neurochem.

[3] = biological target: T3, human dopamine transporter (Homo sapiens, UniProt Q01959); assay: Binding to human dopamine transporter ([125I]RTI-55); details: for IC50: human, read-out: IC50 (nM) DAT
T3 construct: expressed in transfected cells; host or cells: CHO-K1
Method: CHO-K1 cell membranes stably transfected with a plasmid encoding the human dopamine transporter were prepared in modified Tris-HCl pH 7.4 buffer using standard techniques. […] Non-specific binding was estimated in the presence of 10 μM nomifensine. […] Trends. […]

[4] = biological target: T4, human serotonin 5-HT2C receptor (Homo sapiens, UniProt P28335); assay: Radioligand binding assay, human 5-HT2C receptors ([3H]Mesulergine); details: human 5-HT2c, Example 16 table
T4 construct: expressed in transfected cells; host or cells: CHO-K1
T4 sequence (P28335 33-458): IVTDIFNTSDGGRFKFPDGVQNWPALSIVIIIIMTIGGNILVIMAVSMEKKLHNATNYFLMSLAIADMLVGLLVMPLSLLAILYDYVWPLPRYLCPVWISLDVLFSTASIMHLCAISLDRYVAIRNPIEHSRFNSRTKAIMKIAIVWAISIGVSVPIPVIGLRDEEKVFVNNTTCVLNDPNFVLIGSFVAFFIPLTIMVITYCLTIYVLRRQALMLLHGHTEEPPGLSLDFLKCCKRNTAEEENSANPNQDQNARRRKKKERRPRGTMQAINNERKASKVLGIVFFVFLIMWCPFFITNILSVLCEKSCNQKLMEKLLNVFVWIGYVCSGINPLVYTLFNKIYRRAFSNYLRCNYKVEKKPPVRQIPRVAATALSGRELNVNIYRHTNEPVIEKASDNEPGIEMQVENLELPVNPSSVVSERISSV
Method: as §1
CHO-K1 cells stably transfected with a plasmid encoding the human serotonin 5-HT2C receptor were used to prepare membranes in modified Tris-HCl pH 7.7 buffer using standard techniques. […] Non-specific binding was estimated in the presence of 1 μM mianserin. […] See Wolf, W. A. and Schutz, J. S. “The serotonin 5-HT2C receptor is a prominent serotonin receptor in basal ganglia: evidence from functional studies on serotonin-mediated phosphoinositide hydrolysis” J. Neurochem. 69: 1449–1458, 1997.
as §2

[5] = biological target: T5, human dopamine D3 receptor (Homo sapiens, UniProt P35462); assay: Radioligand binding assay, human dopamine D3 receptors ([3H]Spiperone)
T5 construct: expressed in transfected cells; host or cells: CHO
Method: The assay for binding to human D3 receptors was conducted according to Sokoloff, P. et al. Nature 1990, 347, 146.
CHO cells stably transfected with a plasmid encoding the human dopamine D3 receptor were used to prepare membranes in modified Tris-HCl pH 7.4 buffer using standard techniques. […] Non-specific binding was estimated in the presence of 25 μM S-(−)-sulpiride. […] See Sokoloff, P. et al. “Molecular cloning and characterization of a novel dopamine receptor (D3) as a target for neuroleptics” Nature 347: 146–151, 1990.
as §2

[6] = biological target: T6, human serotonin 5-HT2A receptor (Homo sapiens, UniProt P28223); assay: Radioligand binding assay, human 5-HT2A receptors ([3H]Ketanserin); details: human 5-HT2a, Example 16 table
T6 construct: expressed in transfected cells; host or cells: CHO-K1
Method: as §1
CHO-K1 cells stably transfected with a plasmid encoding the human serotonin 5-HT2A receptor were used to prepare membranes in modified Tris-HCl pH 7.7 buffer using standard techniques. […] Non-specific binding was estimated in the presence of 1 μM mianserin. […] See Bonhaus, D. W. et al. “The pharmacology and distribution of human 5-hydroxytryptamine2B (5-HT2B) receptor gene products: comparison with 5-HT2A and 5-HT2C receptors” Brit. J. Pharmacol. 115: 622–628, 1995; and Saucier, C and Albert, P. R. “Identification of an endogenous 5-hydroxytryptamine2A receptor in NIH-3T3 cells: agonist-induced down-regulation involves decreases in receptor RNA and number” J. Neurochem. 68: 1998–2011, 1997.
as §2

[7] = human 5-HT6, Example 16 table, read-out: IC50 (nM) 5-HT6
[8] = Example 20 table, read-out: IC50 (nM) Against Human D3 Receptors
[9] = IC50 (nM) 5-HT6, human 5-HT6, Example 16 table
[10] = IC50 (nM) Against Human D3 Receptors, Example 20 table

T2 sequence (P41595 whole entry): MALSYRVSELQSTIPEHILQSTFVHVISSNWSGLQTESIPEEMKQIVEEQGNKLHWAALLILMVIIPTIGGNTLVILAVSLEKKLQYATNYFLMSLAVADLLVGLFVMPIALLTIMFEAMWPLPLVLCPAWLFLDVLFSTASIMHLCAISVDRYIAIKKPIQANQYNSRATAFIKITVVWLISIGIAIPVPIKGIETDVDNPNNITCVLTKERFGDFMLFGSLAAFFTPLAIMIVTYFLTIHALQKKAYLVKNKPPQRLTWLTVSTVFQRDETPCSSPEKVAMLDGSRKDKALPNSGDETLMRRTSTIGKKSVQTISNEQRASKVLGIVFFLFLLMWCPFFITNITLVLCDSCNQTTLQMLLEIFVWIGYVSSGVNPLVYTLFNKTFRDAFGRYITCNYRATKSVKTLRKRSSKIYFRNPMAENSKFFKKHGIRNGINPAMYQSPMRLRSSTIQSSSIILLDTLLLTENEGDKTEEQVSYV
T5 sequence (P35462 whole entry): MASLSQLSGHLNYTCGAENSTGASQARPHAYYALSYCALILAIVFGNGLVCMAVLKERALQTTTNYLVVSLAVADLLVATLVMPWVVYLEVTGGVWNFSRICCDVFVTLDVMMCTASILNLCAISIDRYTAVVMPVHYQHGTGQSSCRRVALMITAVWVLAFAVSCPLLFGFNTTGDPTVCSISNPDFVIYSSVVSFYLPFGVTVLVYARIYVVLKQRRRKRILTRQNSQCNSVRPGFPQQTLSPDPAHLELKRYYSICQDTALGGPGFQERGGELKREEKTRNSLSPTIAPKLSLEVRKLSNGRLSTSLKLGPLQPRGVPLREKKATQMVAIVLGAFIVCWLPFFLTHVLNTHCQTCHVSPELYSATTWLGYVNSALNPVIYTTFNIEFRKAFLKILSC
T6 sequence (P28223 whole entry): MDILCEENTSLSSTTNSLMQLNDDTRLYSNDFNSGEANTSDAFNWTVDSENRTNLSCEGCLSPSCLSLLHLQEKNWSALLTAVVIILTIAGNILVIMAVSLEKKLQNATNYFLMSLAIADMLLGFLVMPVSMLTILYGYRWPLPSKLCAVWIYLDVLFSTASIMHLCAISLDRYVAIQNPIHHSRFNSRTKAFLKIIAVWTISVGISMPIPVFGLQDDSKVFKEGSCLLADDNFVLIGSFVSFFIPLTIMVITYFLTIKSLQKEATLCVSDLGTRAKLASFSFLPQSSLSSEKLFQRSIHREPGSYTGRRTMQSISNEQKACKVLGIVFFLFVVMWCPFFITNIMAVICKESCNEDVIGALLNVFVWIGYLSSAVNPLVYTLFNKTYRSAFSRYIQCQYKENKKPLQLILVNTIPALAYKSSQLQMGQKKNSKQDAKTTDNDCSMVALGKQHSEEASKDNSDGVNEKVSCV
T3 sequence (Q01959 whole entry): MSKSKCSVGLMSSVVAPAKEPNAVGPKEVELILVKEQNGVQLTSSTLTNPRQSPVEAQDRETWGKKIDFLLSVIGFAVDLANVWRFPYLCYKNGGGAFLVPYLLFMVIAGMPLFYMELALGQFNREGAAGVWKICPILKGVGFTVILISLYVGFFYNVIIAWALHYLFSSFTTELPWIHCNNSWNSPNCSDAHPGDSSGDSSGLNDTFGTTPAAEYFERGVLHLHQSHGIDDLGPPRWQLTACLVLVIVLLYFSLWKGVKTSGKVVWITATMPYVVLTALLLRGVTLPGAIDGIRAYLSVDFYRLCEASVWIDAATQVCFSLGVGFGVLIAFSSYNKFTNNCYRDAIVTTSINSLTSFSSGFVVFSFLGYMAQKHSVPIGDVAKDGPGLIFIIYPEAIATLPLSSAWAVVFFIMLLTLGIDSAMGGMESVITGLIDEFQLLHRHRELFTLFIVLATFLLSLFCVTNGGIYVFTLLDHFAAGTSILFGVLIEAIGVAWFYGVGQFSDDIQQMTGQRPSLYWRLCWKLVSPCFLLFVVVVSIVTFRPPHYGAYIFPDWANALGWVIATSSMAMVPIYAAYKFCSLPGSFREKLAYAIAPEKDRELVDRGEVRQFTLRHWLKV
T1 sequence (P50406 whole entry): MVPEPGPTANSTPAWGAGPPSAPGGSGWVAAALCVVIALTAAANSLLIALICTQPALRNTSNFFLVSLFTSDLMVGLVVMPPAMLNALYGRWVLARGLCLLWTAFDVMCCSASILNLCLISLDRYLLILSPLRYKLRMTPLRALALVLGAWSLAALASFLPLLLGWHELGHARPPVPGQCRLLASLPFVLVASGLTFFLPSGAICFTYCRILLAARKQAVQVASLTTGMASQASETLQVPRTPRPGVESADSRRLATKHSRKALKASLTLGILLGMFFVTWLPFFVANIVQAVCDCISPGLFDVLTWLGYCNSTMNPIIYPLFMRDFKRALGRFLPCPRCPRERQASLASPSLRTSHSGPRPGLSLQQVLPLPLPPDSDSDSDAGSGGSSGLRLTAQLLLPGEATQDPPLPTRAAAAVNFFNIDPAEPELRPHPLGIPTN

Row | Compound | IC50 [1, 7] [nM] | IC50 [2] [nM] | IC50 ([3]; Example 101 table) [nM] | IC50 ([4]; read-out: IC50 (nM) 5-HT2c) [nM] | IC50 [5, 8] [nM] | IC50 ([6]; read-out: IC50 (nM) 5-HT2a) [nM] | also measured
1 | CCN(CC)CCCNc1nc(C2(c3ccc(Cl)cc3)CCC2)cs1.O=C(O)CC(O)(CC(=O)O)C(=O)O [Compound 20, N′-{4-[1-(4-chlorophenyl)cyclobutyl]thiazol-2-yl}-N,N-diethylpropane-1,3-diamine citrate salt] |  |  |  |  |  |  | Animal deaths (ICR male or female mice): no deaths were observed
2 | Clc1ccc(C2(c3csc(NCCN4CCOCC4)n3)CCC2)cc1 [Compound 22, {4-[1-(4-chlorophenyl)-cyclobutyl]thiazol-2-yl}-(2-morpholin-4-yl-ethyl)amine] | > 1000 | > 1000 | > 1000 | > 1000 | > 1000 | > 1000 | 
3 | Clc1ccc(C2(c3csc(NCCN4CCCCC4)n3)CCC2)cc1 [Compound 23, {4-[1-(4-chlorophenyl)-cyclobutyl]thiazol-2-yl}-(2-piperidin-1-yl-ethyl)amine] | > 1000 | < 1000 | < 500 | < 100 | < 1000 | < 1000 | 
4 | CN1CCCC1CCNc1nc(C2(c3ccc(Cl)cc3)CCC2)cs1 (stereo not shown) [Compound 24, {4-[1-(4-chlorophenyl)-cyclobutyl]thiazol-2-yl}-[2-(1-methylpyrrolidin-2-yl)ethyl]amine] | < 1000 | < 100 | < 500 | < 10 | < 1000 | < 100 | 
5 | CCN1CCCC1CNc1nc(C2(c3ccc(Cl)cc3)CCC2)cs1 (stereo not shown) [Compound 25, {4-[1-(4-chlorophenyl)cyclobutyl]thiazol-2-yl}-(1-ethylpyrrolidin-2-ylmethyl)amine] | < 1000 | < 1000 | > 1000 | < 1000 | < 1000 | < 1000 | 
6 | CN1CCCC1CCNc1nc(C2(c3ccc(Cl)cc3)CCC2)no1 (stereo not shown) [Compound 26, {3-[1-(4-Chlorophenyl)cyclobutyl]-[1,2,4]oxadiazol-5-yl}-[2-(1-methyl-pyrrolidin-2-yl)-ethyl]-amine] |  |  |  |  |  |  | IC50 [1, 9]: > 1000 nM; pIC50 [2]: < 6.00; pIC50 [3]: > 6.00; IC50 ([4]; IC50 (nM) 5-HT2c): < 1000 nM; IC50 [5, 10]: > 1000 nM; IC50 ([6]; IC50 (nM) 5-HT2a): > 1000 nM
7 | CN1CCN(c2nc(C3(c4ccc(Cl)cc4)CCC3)cs2)CC1 [Compound 27, 1-{4-[1-(4-chlorophenyl)cyclobutyl]thiazol-2-yl}-4-methylpiperazine] | < 1000 | < 1000 | < 500 | < 1000 | < 1000 | < 1000 | 
8 | CN1CCN(c2nc(C3(c4ccc(Cl)cc4)CCC3)no2)CC1 [Compound 28, 1-{3-[1-(4-chlorophenyl)cyclobutyl]-[1,2,4]oxadiazol-5-yl}-4-methylpiperazine] | > 1000 | > 1000 | > 1000 | > 1000 | > 1000 | > 1000 | 
9 | CN1CCN(c2nc(C3(c4ccc(Cl)cc4)CCOCC3)cs2)CC1 [Compound 29, 1-{4-[4-(4-chlorophenyl)tetrahydropyran-4-yl]-thiazol-2-yl}-4-methylpiperazine] |  |  |  |  |  |  | IC50 [1, 9]: < 100 nM; pIC50 [2]: < 6.00; pIC50 [3]: > 6.00; IC50 ([4]; IC50 (nM) 5-HT2c): < 1000 nM; IC50 [5, 10]: < 1000 nM; IC50 ([6]; IC50 (nM) 5-HT2a): > 1000 nM
10 | CN1CCN(c2nc(CCc3ccc(Cl)cc3)cs2)CC1 [Compound 32] | > 1000 | < 1000 | > 1000 | < 100 | > 1000 | < 100 | 
11 | CN1CCC(c2nc(C3(c4ccc(Cl)cc4)CCCCC3)cs2)CC1 [Compound 35] | < 1000 | < 1000 | < 100 | < 1000 | < 100 | < 1000 | 
12 | COc1ccc(C2(c3csc(N4CCN(C)CC4)n3)CCOCC2)cc1OC [Compound 74] | > 1000 | > 1000 | > 1000 | > 1000 | > 1000 | > 1000 | 
13 | CN1CCN(c2nc(C3(c4ccc(Cl)cc4)CCCC3)cs2)CC1 [Compound 85] | < 100 | < 1000 | < 100 | < 1000 | < 1000 | > 1000 | 
14 | CNC1CCN(c2nc(C3(c4ccccc4F)CCCCC3)cs2)C1 (stereo not shown) [Compound 134, (1-{4-[1-(2-fluorophenyl)-cyclohexyl]-thiazol-2-yl}-pyrrolidin-3-yl)-methyl-amine] |  |  |  |  |  |  | IC50 ([1]; human, Example 100 table, read-out: IC50 (nM) 5-HT6): < 1000 nM; IC50 ([3]; Example 100 table): > 1000 nM; IC50 ([5]; human, Example 100 table, read-out: IC50 (nM) D3): > 1000 nM

— patent US7087623B2, “Thiazole and other heterocyclic ligands for mammalian dopamine, muscarinic and serotonin receptors and transporters, and methods of use thereof” (Sepracor Inc., priority 2001, dated 2006)
